According to patent US4122088A, “Dicarboxyphenyl substituted bis-sulfonylimino dibenzodithiazepine tetroxides” (American Cyanamid Company, priority 1977, dated 1978):
Where a name gives a salt, the structure may show the parent alone. Read-outs that look alike come from different tables or passages of the source.

Columns and labels:
shunt pathway = assay: Test, Code 036 (C-Shunt inhibitor): lysis of human erythrocytes in autologous serum via the shunt pathway activated by cobra venom factor; type: cell-based; settings: serial dilution assay, two-fold dilutions; higher well number indicates higher activity
Text: (§1) An active inhibitor protects C2 from C1 and C4; (ii) Test, Code 035 (C3-C9 inhibitor) - This test determines the ability of the late components of human complement (C3-C9) to lyse EAC 142 in the presence of appropriate dilutions of the test compound. An active inhibitor protects EAC 142 from lysis by human C3-C9; (iii) Test, Code 036 (C-Shunt inhibitor) - In this test human erythrocytes rendered fragile are lysed in autologous serum via the shunt pathway activated by cobra venom factor in the presence of appropriate dilutions of the test compound. Inhibition of the shunt pathway results in failure of lysis; (iv) Forssman Vasculitis Test -- Here, the well known complement dependent lesion, Forssman vasculitis, is produced in guinea pigs by intradermal injection of rabbit anti-Forssman antiserum. […]

human C1 = assay: Test, Code 026 (C1 inhibitor): ability of activated human C1 to destroy fluid phase human C2 in the presence of C4; type: biochemical; settings: serial dilution assay, two-fold dilutions; higher well number indicates higher activity
Text: as §1

[1] = test system: late components of human complement (C3-C9); assay: Test, Code 035 (C3-C9 inhibitor): lysis of EAC 142 by late components of human complement; type: cell-based; parameters: key: Negative; settings: serial dilution assay, two-fold dilutions; higher well number indicates higher activity
Text: as §1

whole complement = assay: Complement Level Reduction Test: whole complement in serum of dosed guinea pigs, capillary tube assay; type: in vivo; settings: Cavia porcellus, ip, guinea pig, i.p., versus simultaneous controls
Text: An active inhibitor protects C2 from C1 and C4; (ii) Test, Code 035 (C3-C9 inhibitor) - This test determines the ability of the late components of human complement (C3-C9) to lyse EAC 142 in the presence of appropriate dilutions of the test compound. An active inhibitor protects EAC 142 from lysis by human C3-C9; (iii) Test, Code 036 (C-Shunt inhibitor) - In this test human erythrocytes rendered fragile are lysed in autologous serum via the shunt pathway activated by cobra venom factor in the presence of appropriate dilutions of the test compound. Inhibition of the shunt pathway results in failure of lysis; (iv) Forssman Vasculitis Test -- Here, the well known complement dependent lesion, Forssman vasculitis, is produced in guinea pigs by intradermal injection of rabbit anti-Forssman antiserum. The lesion is measured in terms of diameter, edema and hemorrhage and the extent to which a combined index of these is inhibited by prior intraperitoneal injection of the test compound at 200 mg/kg is then reported, unless otherwise stated; (v) Forssman Shock Test -- Lethal shock is produced in guinea pigs by an i.v. injection of anti-Forssman antiserum and the harmonic mean death time of treated guinea pigs is compared with that of simultaneous controls; (vi) Complement Level Reduction Test - In this test, the above dosed guinea pigs, or others, are bled for serum and the complement level is determined in undiluted serum by the capillary t3be method of U.S. Pat. No. 3,876,376 and compared to undosed control guinea pigs; and (vii) Cap 50 Test -- Here, appropriate amounts of the test compound are added to a pool of guinea pig serum in vitro, after which the undiluted serum capillary tube assay referred to above is run. The concentration of compound inhibiting 50% is reported.
With reference to Table I, guinea pigs weighing about 300 g were dosed intravenously (i.v.) or intraperitoneally (i.p.) with 200 mg/kg of the test compound dissolved in saline and adjusted to pH 7-8. […] Percent inhibition was calculated by comparison with simultaneous controls. […]

complement system = settings: literature reports; cited from earlier work
[2] = New England Journal of Medicine, 286, 808-812 (1972); cited from earlier work

O=C(O)c1cc(NS(=O)(=O)c2ccc3c(c2)S(=O)(=O)N(c2cc(C(=O)O)cc(C(=O)O)c2)S(=O)(=O)c2cc(S(=O)(=O)Nc4cc(C(=O)O)cc(C(=O)O)c4)ccc2-3)cc(C(=O)O)c1 [5,5'-{[6-(3,5-Dicarboxyphenyl)dibenzo[d,f][1,3,2]-dithiazepine-3,9-diyl]bis(sulfonylimino)}diisophthalic acid hexasodium salt S,S,S',S'-tetroxide]
Shunt Inhibition 036* Wells (shunt pathway): +3 Wells | C1 026* Wells (human C1): +5 Wells | C-Late 035* Wells [1]: N | inhibition at 200 mg/kg (whole complement; 0.5 h, 30 min, read-out: In Vivo Activity (Guinea Pig) % Inhibition, Intraperitoneal, 30 minutes): -23% | inhibition at 200 mg/kg (whole complement; 1 h, 60 min, read-out: In Vivo Activity (Guinea Pig) % Inhibition, Intraperitoneal, 60 minutes): -57% | inhibition at 200 mg/kg (whole complement; 2 h, 120 min, read-out: In Vivo Activity (Guinea Pig) % Inhibition, Intraperitoneal, 120 minutes): -42%

Cc1ccc(C(=O)Nc2ccc(S(=O)(=O)O)c3cc(S(=O)(=O)O)cc(S(=O)(=O)O)c23)cc1NC(=O)c1cccc(NC(=O)Nc2cccc(C(=O)Nc3cc(C(=O)Nc4ccc(S(=O)(=O)O)c5cc(S(=O)(=O)O)cc(S(=O)(=O)O)c45)ccc3C)c2)c1 [Suramin]
anticomplementary effect / inhibition of the complement system (complement system): competitive inhibitor of the complement system

Nc1ccc2cc(S(=O)(=O)O)cc(O)c2c1N=Nc1ccc(NC(=O)Nc2ccc(N=Nc3c(N)ccc4cc(S(=O)(=O)O)cc(O)c34)c(S(=O)(=O)O)c2)cc1S(=O)(=O)O [chlorazol fast pink, 3,3'-ureylenebis-[6-(2-amino-8-hydroxy-6-sulfo-1-naphthylazo)] benzenesulfonic acid, tetrasodium salt]
anticomplementary effect / inhibition of the complement system (complement system): anticomplementary effect

NCCCCCC(=O)O [epsilon-aminocaproic acid]
use in the treatment of hereditary angioneurotic edema [2]: used with success

NC[C@H]1CC[C@H](C(=O)O)CC1 [tranexamic acid]
use in the treatment of hereditary angioneurotic edema [2]: used with success

heparin
anticomplementary effect / inhibition of the complement system (complement system): anticomplementary effect
